Experimental data from PMC9382865, “Infigratinib Reduces Fibroblast Growth Factor 23 (FGF23) and Increases Blood Phosphate in Tumor‐Induced Osteomalacia” (JBMR Plus, 2022).

What was measured:
[1] = test system: FGF23 (intact and C-terminal), blood phosphate; test: Biochemical response (iFGF23, cFGF23, phosphate, 1,25D, TRP) in patients with TIO on daily infigratinib; format: in vivo, human
Procedure: Subjects received oral daily doses of infigratinib for up to 24 weeks. The initial dose of 75 mg daily was based on studies investigating infigratinib use in subjects with cholangiocarcinoma, as well as our clinical experience with two NIH patients with TIO who had previously participated in an infigratinib trial outside of the NIH (ClinicalTrials.gov NCT02160041). After 8 weeks on therapy, dose escalation and de‐escalation of drug was determined by investigators based on tolerability and changes in C‐terminal FGF23 (cFGF23) levels. Planned dose escalation would occur by 25 mg every 8 weeks to a maximum dose of 125 mg/d if cFGF23 levels were not suppressed to <100 relative units (RU)/mL. De‐escalations or interruptions would occur if a subject experienced an adverse event, including hyperphosphatemia. A cFGF23 assay that measures both the active intact FGF23 molecule and inactivated C‐terminal fragments was used for titration purposes rather than an intact FGF23 (iFGF23) assay because the cFGF23 assay was the only commercially available option at the time.
(§1) Serial sampling was performed every 2 hours for 24 hours after the first dose of infigratinib to evaluate the pharmacokinetics and pharmacodynamics of the drug. Subsequently, laboratory tests were performed every 2 weeks. Routine blood and urine chemistries were performed at the NIH Clinical Center Department of Laboratory Medicine during inpatient stays and outpatient visits. Laboratory testing in the intervening weeks were performed either at the NIH or at a local laboratory, depending on the patient's proximity to the NIH. Infigratinib levels were also measured at weeks 4 and 8.
(§2) Biochemical testing included measurement of routine chemistries, 1,25D (radioimmunoassay; Mayo Medical Laboratories, Rochester, MN, USA), cFGF23 (ELISA; Immutopics International, San Clemente, CA, USA; Mayo Medical Laboratories), iFGF23 (ELISA; Immutopics International), C‐telopeptide (CTx) (electrochemiluminescence immunoassay; Mayo Medical Laboratories), and procollagen 1 intact N‐terminal (P1NP) (competitive radioimmunoassay; Mayo Medical Laboratories). Infigratinib levels were measured by Q2 Lab Solutions (Durham, NC, USA).
Tubular reabsorption of phosphate (TRP) was calculated using the following equation: 100 × [1 – (urine phosphate × serum creatinine)/(serum phosphate × urine creatinine)] and maximum renal tubular phosphate reabsorption in mass per unit volume of glomerular filtrate (TmP/GFR) was determined using the following equations: for TRP ≤0.86 (86%): TmP∕GFR = TRP × phosphate; for TRP >0.86 (86%): TmP∕GFR = (0.3 × TRP)/[1 − (0.8 × TRP)] ×phosphate.^( [20] ^)
At the end of week 24, patients still on therapy were admitted again to the NIH Clinical Center to monitor off‐drug effects with daily blood and urine sampling × 7 days. Subjects with persistent biochemical remission after 7 days would be monitored as outpatients off therapy for 12 additional weeks. Subjects with normal phosphate levels on infigratinib but without persistent biochemical response on cessation were considered for an optional extension phase.

PMT metastases = test system: PMT metastases; design: method as in PMID 32905668; details: one patient with metastatic TIO, while on therapy, cited from earlier work
[2] = Strength assessments and patient-reported quality-of-life outcomes; format: in vivo, human; design: RAND – Emotional well-being: scale not given here; details: for Grip Strength Evaluation: baseline 15+/-12; for PROMIS – Mobility Item Bank T score (higher = better): baseline 38+/-7; for RAND – Role limitations due to physical health problems: baseline 44+/-13; for RAND SF-36 Physical Functioning (0-100, higher better): baseline 46+/-19; for RAND – Energy/Fatigue: baseline 50+/-29; for RAND – Bodily Pain: baseline 52+/-29; for PROMIS – Fatigue 8A Short Form T score (higher = increased fatigue): baseline 55+/-8; for PROMIS – Pain Interference 8A short form T score (higher = increased pain interference): baseline 56+/-4; for RAND – Social functioning: baseline 59+/-37; for RAND – General health perceptions: baseline 60+/-11; for RAND – Emotional well-being: baseline 67+/-15; for RAND – Role limitations due to emotional health problems: baseline 67 +/-27; for Pinch Test: baseline 6.8 +/-4; for 5x Sit to stand: baseline 15+/-7; for DASH score (0 no disability, 100 severe disability): baseline 16+/-5
Procedure: (§3) Safety, tolerability, and efficacy were evaluated during in‐person visits every 4 weeks at the NIH Clinical Center and included a physical exam, ophthalmologic exam, patient‐reported outcome measures and strength assessments. The Disabilities of Arm Shoulder and Hand Outcome Measurement (DASH) questionnaire was used to measure self‐reported upper extremity symptoms and disability. The RAND 36‐item Short Form Health Survey (RAND SF‐36) version 1.0 was performed to determine effects of infigratinib on health‐related quality of life over the duration of the study. Patient Reported Outcomes Measurement Information System (PROMIS) item banks for fatigue (PROMIS SF v1.0‐Fatigue 8a), mobility (PROMIS Bank v2.0 – Mobility), and pain interference (PROMIS SF v1.1‐Pain Interference 8a) were also performed. Strength assessments included a Six‐Minute Walk Test, Grip Strength assessment, Pinch Strength assessment, and Five Time Sit to Stand. The Grip Strength assessment was performed on the dominant hand using a JAMAR Hand Dynamometer (Sammons Preston, Inc., Bolingbrook, IL, USA) and three successive trials were averaged to determine the final score. The Pinch Strength assessment was performed using the Exacta Hydraulic Pinch Gauge (North Coast Medical, Inc., Morgan Hill, CA, USA) with three successive trials averaged for the final score.

[3] = test system: phosphaturic mesenchymal tumors; test: 18F-FDG-PET/CT and 68Ga-DOTATATE-PET/CT of tumors before and after infigratinib; format: in vivo, human
Procedure: In patients with identifiable tumors, recent prior imaging was obtained from the patient record. The imaging studies that best characterized their tumor prior to therapy (18Flouride‐Fluorodeoxyglucose (FDG) DG‐PET/CT and/or 68Gallium (68Ga)‐DOTATATE‐PET/CT) were repeated at the 24‐week visit, if clinically indicated, and the changes were assessed.

[4] = 24-hour pharmacokinetics after the first oral dose of infigratinib 75 mg in patients with TIO; format: in vivo; details: human, blood
Procedure: as §1, §2

[5] = Safety and adverse events (CTCAE) in the phase 2 TIO trial; format: in vivo, human
Procedure: as §3
The primary objective of the study was to induce a persistent metabolic remission, defined by normalization of FGF23 and phosphate after study drug discontinuation. Secondary objectives included evaluating the effects of infigratinib on mineral homeostasis, radiographic appearance of PMTs, quality of life, and muscle strength. Key biochemical end points included changes in iFGF23, cFGF23, phosphate, 1,25D, TRP, and TmP/GFR. Because the study closed prematurely with only four patients enrolled, results were primarily descriptive. Adverse events were summarized by frequency and percentage. Continuous variables were presented as mean ± standard deviation (SD). Linear mixed effects models were fitted to the repeated measures data collected from the 24‐hour serial sampling and the first 8 weeks of therapy when the patients were on the same infigratinib dose (75 mg daily) because, after this point, dose reductions and interruptions occurred. Analysis was performed using SAS (version 9.4; SAS Institute, Inc., Cary, NC, USA). Graphs were produced using GraphPad Prism 8 (GraphPad Software, Inc., La Jolla, CA, USA).

[6] = design: method as in earlier work; details: subjects with cholangiocarcinoma; no reactions above grade 2; cited from earlier work
[7] = Subject 2, 75 mg then 50 mg daily, up to 24 weeks
[8] = Subject 1, single oral dose 75 mg
[9] = Subject 2, single oral dose 75 mg
[10] = Subject 3, single oral dose 75 mg
[11] = Subject 4, single oral dose 75 mg

Compound: CCN1CCN(c2ccc(Nc3cc(N(C)C(=O)Nc4c(Cl)c(OC)cc(OC)c4Cl)ncn3)cc2)CC1 [Infigratinib]
- TRP change ([1]; 75 mg daily, by week 8): increased in all patients
- cFGF23 decrease from baseline [1, 7]: 89%
- iFGF23 decrease from baseline [1, 7]: 95%
- Reduction in cFGF23 ([1]; Subject 2, first 24 hours after first 75 mg dose): 82%
- Biochemical response while on therapy ([1]; Subject 2, neither intact nor C-terminal FGF23 ever normalized): significant biochemical response
- iFGF23 nadir ([1]; Subject 2, normal <54 pg/mL): 171 pg/mL
- cFGF23 nadir ([1]; Subject 2, normal <180 RU/mL): 241 RU/mL
- Metabolic response while on therapy ([1]; Subjects 1, 3 and 4, reversed rapidly with drug cessation): complete metabolic response
- Biochemical response ([1]; all patients, 75 mg daily, week 8): partial biochemical response
- Phosphate levels change ([1]; first 24 hours after first 75 mg dose, p < 0.0001, none exceeded lower limit of normal at hour 24): increased
- iFGF23 change ([1]; first 24 hours after first 75 mg dose, p < 0.001): decreased significantly
- Enduring metabolic remission (persistently normal FGF23 and blood phosphate following drug discontinuation), primary objective ([1]; four TIO patients, up to 24 weeks daily oral): no subject achieved the primary objective
- FGF23 change (PMT metastases): significant decreases in FGF23
- Tumor burden (PMT metastases; reversed with cessation): profound reduction in tumor burden
- Grip Strength Evaluation ([2]; 8 Weeks, N=4, mean+/-SD): 18+/-9 kilograms
- PROMIS – Mobility Item Bank T score (higher = better) ([2]; 8 Weeks): 39+/-5
- RAND – Role limitations due to physical health problems ([2]; 8 Weeks): 68+/-31
- RAND SF-36 Physical Functioning (0-100, higher better) ([2]; 8 Weeks): 51+/-17
- RAND – Energy/Fatigue ([2]; 8 Weeks): 53+/-22
- RAND – Bodily Pain ([2]; 8 Weeks): 63+/-37
- PROMIS – Fatigue 8A Short Form T score (higher = increased fatigue) ([2]; 8 Weeks): 53+/-8
- PROMIS – Pain Interference 8A short form T score (higher = increased pain interference) ([2]; 8 Weeks): 52+/-6
- RAND – Social functioning ([2]; 8 Weeks): 78+/-21
- RAND – General health perceptions ([2]; 8 Weeks): 73+/-17
- RAND – Emotional well-being ([2]; 8 Weeks): 72+/-13
- RAND – Role limitations due to emotional health problems ([2]; 8 Weeks): 75+/-32
- Pinch Test ([2]; 8 Weeks, mean+/-SD): 6.8 +/-1 kilograms
- 5x Sit to stand ([2]; 8 Weeks, mean+/-SD): 14 ± 1 s
- DASH score (0 no disability, 100 severe disability) ([2]; 8 Weeks, mean+/-SD): 14+/-5
- 6 Minute Walk Test ([2]; 24 Weeks, N=4, mean+/-SD, baseline 474+/-250, normal range 391-751): 474+/-250 496+/-173 meters
- PROMIS – Mobility Item Bank T score (higher = better) ([2]; 24 Weeks): 39+/-3
- RAND – Role limitations due to physical health problems ([2]; 24 Weeks): 25+/-50
- RAND SF-36 Physical Functioning (0-100, higher better) ([2]; 24 Weeks): 40+/-6
- RAND – Energy/Fatigue ([2]; 24 Weeks): 49+/-33
- RAND – Bodily Pain ([2]; 24 Weeks): 36+/-2.5
- PROMIS – Fatigue 8A Short Form T score (higher = increased fatigue) ([2]; 24 Weeks): 52+/-9
- PROMIS – Pain Interference 8A short form T score (higher = increased pain interference) ([2]; 24 Weeks): 53+/-9
- RAND – Social functioning ([2]; 24 Weeks): 72+/-33
- RAND – General health perceptions ([2]; 24 Weeks): 71+/-18
- RAND – Emotional well-being ([2]; 24 Weeks): 62+/-10
- RAND – Role limitations due to emotional health problems ([2]; 24 Weeks): 41.7+/-50
- Pinch Test ([2]; 24 Weeks, mean+/-SD): 7+/-1 kilograms
- 5x Sit to stand ([2]; 24 Weeks, mean+/-SD): 11 ± 1 s
- Grip Strength Evaluation ([2]; 24 Weeks, mean+/-SD): 16+/-1 kilograms
- DASH score (0 no disability, 100 severe disability) ([2]; 24 Weeks, mean+/-SD): 12+/-8
- Tumor size change after treatment ([3]; Subjects 1 and 2, after 6 months): without appreciable change in size
- Reduction of SUVmax of the PMTs after treatment ([3]; all studies except Subject 1 68Ga scans): greater than 40%
- AUC [4, 8]: 89.7 ng·h/mL
- Cmax [4, 8]: 28.6 ng/mL
- Tmax [4, 8]: 2 h
- half-life [4, 8]: 2.73 h
- AUC [4, 9]: 1090 ng·h/mL
- Cmax [4, 9]: 176 ng/mL
- Tmax [4, 9]: 2 h
- half-life [4, 9]: 7.75 h
- AUC [4, 10]: 133 ng·h/mL
- Cmax [4, 10]: 23.8 ng/mL
- Tmax [4, 10]: 4 h
- half-life [4, 10]: 3.02 h
- AUC [4, 11]: 764 ng·h/mL
- Cmax [4, 11]: 67.9 ng/mL
- Tmax [4, 11]: 6 h
- half-life [4, 11]: 7.62 h
- Serious adverse events ([5]; 4 subjects): No subjects experienced serious adverse events
- Total Number of Adverse Events ([5]; 4 subjects): 111
- Grade 3 AEs (CTCAE) ([5]; both improved following drug interruption): increased alanine aminotransferase and decreased neutrophil count in subject 2
- Corneal keratitis with blurred vision ([5]; continuous daily dosing, drug interruptions required in two patients): all patients developed corneal keratitis with blurred vision
- Time to normalization of vision after infigratinib discontinuation ([5]; in vivo): ≤ 60 days
- Number of AEs considered possibly, probably, or definitely related to infigratinib ([5]; of 111 AEs): 87
- Corneal scarring, share of subjects ([5]; subjects who developed ocular keratitis on infigratinib): 50%
- Blurred vision, share of patients [6]: 21%
- Dry eye, including keratitis, share of patients [6]: 44%
